Measurements: patent US20110053896A1, “OSMOLYTES FOR THE TREATMENT OF ALLERGIC OR VIRAL RESPIRATORY DISEASES” (priority 2007, published 2011)

Tests used:
ICAM-1 expression [1] = assay: Reduction of ICAM-1 expression by DGP in UVA-irradiated ceratinozytes; type: cell-based; details: Human ceratinozytes pretreated with DGP for 24 hours, UVA radiation
Experimental: Human ceratinozytes were pretreated with DGP for 24 hours. After radiation using UVA rays (environment noxes) the quantity of ICAM-1 was measured.

[2] = test system: rats sensitized to ovalbumin (OVA), early allergic reaction; assay: Ovalbumin-induced allergic asthma in rats, early allergic reaction (lung function); type: in vivo; details: intratracheal pretreatment 48 h, 24 h and 2 h before ovalbumin challenge, in comparison to the negative control
Text: (§1) The study population consisted of 4 treatment groups, a reference group, a sham-sensitized and vehicle-treated negative control group, and a vehicle-treated positive control group. The group size was n=16.
In the first phase of the study, all animals, except for the sham-sensitized group, were systemically sensitized to ovalbumin (OVA) plus adjuvants, the negative control group was given NaCl. On days 7 and 14, the animals were intratracheally boosted with OVA (to enhance the sensitizing effect). 48 h, 24 h and 2 h before the final inhalative allergen exposure was performed, three groups and a positive control group were subjected to an intratracheal pretreatment with the test substance, ectoine, at three dosage levels. […] After expiry of the waiting period, the animals were anesthetized, orotracheally intubated in a gentle manner and—after placement of an oesophagus catheter and allowing the mice to reach a steady state—their lung functions (including such parameters as tidal volume, breathing frequency, dynamic compliance and lung resistance) were measured body-plethysmographically prior to provocation. The data was collected and evaluated using a computer program (HEM, Notocord/France) specifically developed for these lung function tests.
The lung function parameters were continuously recorded during and after exposure in order to measure bronchospasm.

[3] = test system: rats sensitized to ovalbumin (OVA), late allergic reaction; assay: Ovalbumin-induced allergic asthma in rats, late allergic reaction (hyperreactivity, BAL); type: in vivo; details: 24 h after the ovalbumin challenge, acetyl-choline hyperreactivity and BAL cell counts, compared to negative control group
Text: as §1
In the first phase of the study, all animals, except for the sham-sensitized group, were systemically sensitized to ovalbumin (OVA) plus adjuvants, the negative control group was given NaCl. On days 7 and 14, the animals were intratracheally boosted with OVA (to enhance the sensitizing effect). […] The two control groups were given only NaCl. After expiry of the waiting period, the animals were anesthetized, orotracheally intubated in a gentle manner and—after placement of an oesophagus catheter and allowing the mice to reach a steady state—their lung functions (including such parameters as tidal volume, breathing frequency, dynamic compliance and lung resistance) were measured body-plethysmographically prior to provocation. The data was collected and evaluated using a computer program (HEM, Notocord/France) specifically developed for these lung function tests.
The late allergic phase was tested 24 h after the ovalbumin challenge. First the animals were tested for airway hyperreactivity to unspecific stimuli. […] Using the lavage liquid, the total and the differential cell counts were determined including the number of esinophiles in the BAL.

ICAM-1 expression [4] = assay: Inhibition of ICAM-1 expression by ectoine (RT-PCR, UVA radiation); type: cell-based; details: ceratinzytes pre-incubated for 24 h with 1 mM ectoine, UVA 30 J/cm^2, RT-PCR relative to β-actin
Experimental: ICAM-1 expression was measured using differential reverse transcriptase-PCR (RT-PCR) and the Applied Biosystem Kit. To take account of the normal variations in the gene expression of skin cells, ICAM-1 expression is put into relationship to the constitutively formed house-keeping gene, β-actin. The semi-quantitive analysis of RT-PCR was performed by ion exchange chromatography using a UV spectrophotometer (A260). (A) Non-pretreated, radiated control sample (B) pre-incubated for 24 h with 1 mM RonaCare™ Ectoin and radiated with a single dose of 30 J/cm^2 or (C) pre-incubated for 24 h with 1 mM ectoine, non-irradiated. UVA radiation induces upregulation of ICAM-1 expression.

[5] = test system: Balb/c mice sensitized with ovalbumin (acute allergic asthma); assay: Ovalbumin-sensitized mice, allergic asthma model, intranasal ectoine solution; type: in vivo; details: 50 μl intranasal, 14 treatments day 0 to 32, compared to 0.9% salt solution
Experimental: Seven-months-old mice of the inbred strain Balb/c were sensitized by injecting them intraperitoneally with a mixture of ovalbumin and aluminum hydroxide contained in a total volume of 200 μl buffer (PBS). The injection was made twice, once on day 0 and once on day 14. The size of each group tested was n=8.
In order to subsequently induce the allergic reaction in the lungs of the mice, i.e. s to trigger the acute allergic asthma, the mice were treated inhalatively with an ovalbumin aerosol for 30 minutes each on days 28 and 38. For this purpose, the mice were placed in a plexiglass chamber, into which a misty 1% OVA solution was introduced through an inhaler.
For ectoine treatment, the animals were anesthetized with a mixture of ketamine and rompune. 50 μl of a sterile ectoine solution or 0.9% salt solution was applied in front of the nostrils with glass capillaries until the solution was completed inhaled. The treatments—14 in all—started on day 0. The last treatment was administered on day 32.
The end points of the study were defined as the bronchial hyperreactivity as measured with a plethysmograph, the b ronchoalveolar lavage (BAL) cellular composition and the release of OVA-specific igE and igG1 antibodies.

| Compound | inhibition of ICAM-1 expression (ICAM-1 expression [1]) [%] | effect on lung function parameters (early allergic reaction, bronchospasm) [2] | effect on the late allergic reaction [3] | ICAM-1 induction caused by UVA radiation (ICAM-1 expression [4]) | effect on bronchial hyperreactivity, BAL cellular composition and release of OVA-specific igE and igG1 antibodies [5] |
| --- | --- | --- | --- | --- | --- |
| O=P(O)(OCC(O)CO)OCC(O)CO (centres unmarked) [DGP, 1,1-diglycerol phosphate] | 49 | – | – | – | – |
| CC1=NCC[C@@H](C(=O)O)N1 [ectoine] | – | significant positive effect | positive effect | almost completely neutralize | significant positive effect |
